Data reported in patent US20140154264A1, “COMPOSITIONS AND METHODS FOR TREATING CANCER AND DISEASES AND CONDITIONS RESPONSIVE TO CELL GROWTH INHIBITION” (THE REGENTS OF THE UNIVERSITY OF CALIFORNIA, priority 2011, published 2014).
Where two headings read alike, the source gives them in different places.

Assays:
FG and FG-β3 cells = experiment: tumor sphere formation assay; assay type: cell-based, human; settings: for effect of αvβ3 expression on drug resistance: in vitro, FG cells lacking vs expressing αvβ3
Description: (n=3 independent experiments); as discussed in detail in Example 1, below.
Therefore, we examined whether αvβ3 expression also promotes resistance to other growth factor inhibitors and/or cytotoxic agents.
Immunoblot analysis of FG, FG-β3 and FG-β3 stably expressing non-silencing or RalB-specific ShRNA, grown in suspension and treated with erlotinib (0.5 μM). pTBK1 refers to phospho-S172 TBK1, p-p65 NF-κB refers to phospho-p65 NF-κB S276, pFAK refers to phospho-FAK Tyr 861. […] Error bars represent s.d. (n=3 independent experiments). *P<0.05, **P<0.001, NS=not significant. Immunoblot analysis showing NF-κB WT and S276D NF-κB FLAG transfection efficiency. (c) Tumor spheres formation assay of FG-β3 treating with non-silencing (shCTRL) or NF-κB-specific shRNA and exposed to erlotinib (0.5 μM). Error bars represent s.d. (n=3 independent experiments). *P<0.05, NS=not significant. (d) Dose response in FG-β3 cells treated with erlotinib (10 nM to 5 μM), lenalidomide (10 nM to 5 μM) or a combination of erlotinib (10 nM to 5 μM) and lenalidomide (1 μM). Error bars represent s.d. (n=3 independent experiments). *P<0.05, NS=not significant.
Tumor spheres formation assays were performed essentially as described previously^17. Briefly, cells were seeded at 1000 to 2000 cells per well and grown for 12 days to 3 weeks. Cells were treated with vehicle (DMSO), erlotinib (10 nM to 5 μM), lapatinib (10 nM to 5 μM), gemcitabine (0.001 nM to 5 μM), OSI-906 (10 nM to 5 μM), lenalidomide (10 nM to 5 μM), or cisplatin (10 nM to 5 μM), diluted in DMSO. The media was replaced with fresh inhibitor every day for erlotinib, lapatinib, lenalidomide and 3 times a week for cisplatin and gemcitabine. Colonies were stained with crystal violet and scored with an Olympus SZH10 microscope. Survival curves were generated at least with five concentration points.

G2/M progression = G2/M progression after cilengitide treatment; assay type: cell-based
C-RAF Ser338 = C-RAF Ser338 phosphorylation in human glioblastoma cell lines; assay type: cell-based
From the text: (§1) These events are associated with reduced cell proliferation in vitro and tumor regression in vivo.

avb3 = avb3 (Homo sapiens, UniProt P05106+P06756); experiment: cell-free integrin binding assay
avb3, sequence (P06756 31-889 limits assumed): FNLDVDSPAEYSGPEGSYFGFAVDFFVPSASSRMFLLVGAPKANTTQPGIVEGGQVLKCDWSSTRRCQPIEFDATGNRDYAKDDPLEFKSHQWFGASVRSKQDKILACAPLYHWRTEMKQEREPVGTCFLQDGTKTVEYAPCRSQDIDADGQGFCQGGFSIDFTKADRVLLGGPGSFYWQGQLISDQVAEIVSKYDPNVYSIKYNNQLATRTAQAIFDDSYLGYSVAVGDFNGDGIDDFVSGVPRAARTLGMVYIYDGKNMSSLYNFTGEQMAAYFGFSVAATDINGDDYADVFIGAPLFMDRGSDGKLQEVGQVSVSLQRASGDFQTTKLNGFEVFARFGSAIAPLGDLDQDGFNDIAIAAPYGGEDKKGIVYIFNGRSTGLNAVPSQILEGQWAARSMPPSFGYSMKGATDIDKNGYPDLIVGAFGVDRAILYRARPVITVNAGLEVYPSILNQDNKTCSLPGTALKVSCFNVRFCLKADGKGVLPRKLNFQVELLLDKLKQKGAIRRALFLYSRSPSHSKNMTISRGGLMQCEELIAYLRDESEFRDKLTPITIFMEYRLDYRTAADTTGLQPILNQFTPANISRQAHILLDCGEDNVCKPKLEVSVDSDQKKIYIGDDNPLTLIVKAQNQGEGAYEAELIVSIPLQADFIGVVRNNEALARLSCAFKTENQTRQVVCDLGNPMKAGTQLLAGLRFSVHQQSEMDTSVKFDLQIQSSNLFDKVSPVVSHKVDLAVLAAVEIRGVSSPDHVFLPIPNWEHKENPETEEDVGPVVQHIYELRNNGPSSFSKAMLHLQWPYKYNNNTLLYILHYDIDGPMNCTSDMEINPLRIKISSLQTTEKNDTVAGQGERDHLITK
avb3, sequence (P06756 891-1048 limits assumed): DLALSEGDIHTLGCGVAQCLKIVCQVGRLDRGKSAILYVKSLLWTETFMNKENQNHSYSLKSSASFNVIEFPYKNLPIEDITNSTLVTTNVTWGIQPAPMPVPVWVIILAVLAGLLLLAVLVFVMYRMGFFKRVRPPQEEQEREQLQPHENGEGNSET
avb3, sequence (P05106 27-788): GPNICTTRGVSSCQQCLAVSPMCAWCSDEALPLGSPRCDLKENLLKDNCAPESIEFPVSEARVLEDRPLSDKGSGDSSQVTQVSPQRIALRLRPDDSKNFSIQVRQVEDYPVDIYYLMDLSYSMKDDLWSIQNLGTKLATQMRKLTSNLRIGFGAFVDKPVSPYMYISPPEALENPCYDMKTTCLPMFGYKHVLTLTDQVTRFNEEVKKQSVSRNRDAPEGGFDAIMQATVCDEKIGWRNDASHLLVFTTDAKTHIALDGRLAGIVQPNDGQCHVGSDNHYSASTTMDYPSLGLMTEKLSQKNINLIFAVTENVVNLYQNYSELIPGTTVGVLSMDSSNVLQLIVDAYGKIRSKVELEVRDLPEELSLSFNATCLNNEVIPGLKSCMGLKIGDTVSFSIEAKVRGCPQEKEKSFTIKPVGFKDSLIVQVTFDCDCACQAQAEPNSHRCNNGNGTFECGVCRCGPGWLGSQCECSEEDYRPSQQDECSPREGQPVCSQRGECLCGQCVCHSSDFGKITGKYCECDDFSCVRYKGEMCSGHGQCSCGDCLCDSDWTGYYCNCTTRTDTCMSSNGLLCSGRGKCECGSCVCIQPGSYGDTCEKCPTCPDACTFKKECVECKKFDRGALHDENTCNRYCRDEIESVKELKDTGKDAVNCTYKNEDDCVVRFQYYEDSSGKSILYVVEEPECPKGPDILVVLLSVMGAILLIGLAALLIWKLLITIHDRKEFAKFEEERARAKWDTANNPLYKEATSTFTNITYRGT

[1] = system: angiogenesis and tumor growth; experiment: angiogenesis and tumor growth in vivo
[2] = system: C-RAF S338 phosphorylation; experiment: C-RAF S338 phosphorylation in brain tumors; assay type: in vivo; settings: mouse orthotopic model
From the text: as §1

orthotopic GBM tumors = experiment: orthotopic brain tumor mouse model; assay type: in vivo
patients with cancer = experiment: cancer patient studies; assay type: in vivo, human; settings: various patients with cancer
avb5 = avb5 (Homo sapiens, UniProt P06756+P18084); experiment: cell-free integrin binding assay
avb5, sequence (P06756 31-889 limits assumed): as the sequence (P06756 31-889 limits assumed) above
avb5, sequence (P06756 891-1048 limits assumed): as the sequence (P06756 891-1048 limits assumed) above
avb5, sequence (P18084 24-799): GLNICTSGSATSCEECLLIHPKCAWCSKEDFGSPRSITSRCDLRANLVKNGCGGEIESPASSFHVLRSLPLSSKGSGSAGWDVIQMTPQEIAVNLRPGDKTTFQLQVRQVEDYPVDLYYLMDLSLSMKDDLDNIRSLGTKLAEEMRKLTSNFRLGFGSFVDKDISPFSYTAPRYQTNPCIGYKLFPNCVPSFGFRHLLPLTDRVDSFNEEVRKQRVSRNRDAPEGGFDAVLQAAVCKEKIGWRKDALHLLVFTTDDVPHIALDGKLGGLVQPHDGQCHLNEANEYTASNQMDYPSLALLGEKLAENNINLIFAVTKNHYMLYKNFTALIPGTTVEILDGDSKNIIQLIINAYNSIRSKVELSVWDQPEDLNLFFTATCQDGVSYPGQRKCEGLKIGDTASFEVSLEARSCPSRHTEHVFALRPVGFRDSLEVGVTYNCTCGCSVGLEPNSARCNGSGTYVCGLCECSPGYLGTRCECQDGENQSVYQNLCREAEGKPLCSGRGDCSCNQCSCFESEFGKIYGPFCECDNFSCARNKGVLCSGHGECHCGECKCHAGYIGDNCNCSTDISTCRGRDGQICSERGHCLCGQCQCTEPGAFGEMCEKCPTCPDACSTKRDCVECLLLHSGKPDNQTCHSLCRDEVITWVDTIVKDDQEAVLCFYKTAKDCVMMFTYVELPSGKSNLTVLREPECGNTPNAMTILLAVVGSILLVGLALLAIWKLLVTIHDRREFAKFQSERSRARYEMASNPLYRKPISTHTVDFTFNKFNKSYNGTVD

[3] = system: H441 human lung adenocarcinoma orthotopic tumors; experiment: orthotopic lung cancer xenograft model; assay type: in vivo, mice; settings: systemic erlotinib for 7-8 weeks
From the text: (§2) The longer cells were exposed to erlotinib the greater the expression level of αvβ3 was observed, FIG. 26b. […] Thus, exposure of histologically distinct tumor cells in vitro or in vivo to EGFR inhibitors selects for a tumor cell population expressing high levels of αvβ3.
(a) Flow cytometric quantification of cell surface markers after 3 weeks treatment with erlotinib (pancreatic and colon cancer cells) or lapatinib (breast cancer cells). (b) Flow cytometric analysis of αvβ3 expression in FG and Miapaca-2 cells following erlotinib. Error bars represent s.d. (n=3 independent experiments). […] Bottom, Integrin αvβ3 expression was quantified as ratio of integrin αvβ3 pixel area over nuclei pixel area using Metamorph (*P=0.049 using Mann-Whitney U test). […] Results are expressed as % tumor weight compared to vehicle control. *P<0.05.
Immunostaining was performed according to the manufacturer's recommendations (Vector Labs) on […] sections of paraffin-embedded tumors from the orthotopic xenograft pancreas and lung cancer mouse models^14 or from a metastasis tissue array purchased from US Biomax (MET961). […] Sections stained with integrin β3 and active Ral were scored by a H-score according to the staining intensity (SI) on a scale 0 to 3 within the whole tissue section.

phosphorylated NF-κB = experiment: immunoblot analysis of cells grown in suspension and treated with erlotinib; assay type: cell-based, human; settings: erlotinib 0.5 μM
Description: (§3) In addition, it has been shown that NF-κB signaling is essential for KRAS-driven tumor growth and resistance to EGFR blockade^27-29. This prompted us to ask whether αvβ3 could regulate NF-κB activity through RalB activation and thereby promote tumor cell resistance to EGFR targeted therapy. To test this, tumor cells expressing or lacking integrin αvβ3 and/or RalB were grown in the presence or absence of erlotinib and lysates of these cells were analyzed for activated downstream effectors of RalB. […] NF-κB activity was sufficient to account for EGFR inhibitor resistance since ectopically expressed a constitutively active NF-κB (S276D) in β3-negative FG pancreatic tumor cells^30 conferred resistance to EGFR inhibition, see FIG. 29b). […] Together, our studies describe a role for αvβ3 mediating resistance to EGFR inhibition via RalB activation and its downstream effector NF-κB, opening new avenues to target tumors that are resistant to EGFR targeted therapy, see FIG. 29e.
(§4) Immunoblot analysis of FG, FG-β3 and FG-β3 stably expressing non-silencing or RalB-specific ShRNA, grown in suspension and treated with erlotinib (0.5 μM). pTBK1 refers to phospho-S172 TBK1, p-p65 NF-κB refers to phospho-p65 NF-κB S276, pFAK refers to phospho-FAK Tyr 861. Data are representative of three independent experiments. (b) Tumor spheres formation assay of FG cells ectopically expressing vector control, WT NF-κB FLAG tagged or constitutively active S276D NF-κB FLAG tagged constructs treated with erlotinib (0.5 μM). Error bars represent s.d. (n=3 independent experiments). *P<0.05, **P<0.001, NS=not significant. Immunoblot analysis showing NF-κB WT and S276D NF-κB FLAG transfection efficiency. (c) Tumor spheres formation assay of FG-β3 treating with non-silencing (shCTRL) or NF-κB-specific shRNA and exposed to erlotinib (0.5 μM). Error bars represent s.d. (n=3 independent experiments). *P<0.05, NS=not significant. (d) Dose response in FG-β3 cells treated with erlotinib (10 nM to 5 μM), lenalidomide (10 nM to 5 μM) or a combination of erlotinib (10 nM to 5 μM) and lenalidomide (1 μM). Error bars represent s.d. (n=3 independent experiments). *P<0.05, NS=not significant. (e) Model depicting the integrin αvβ3-mediated EGFR TKI resistance and conquering EGFR TKI resistance pathway and its downstream RalB and NF-κB effectors.
(§5) Cells were lysed in either RIPA lysis buffer (50 mM Tris pH 7.4, 100 mM NaCL, 2 mM EDTA, […], 10% Triton, 0.1% SDS) or Triton lysis buffer (50 mM Tris pH 7.5, 150 mN NaCl, 1 mM EDTA, 5 mM MgCl2, 10% Glycerol, 1% Triton) supplemented with complete protease and phosphatase inhibitor mixtures (Roche) and centrifuged at 13,000 g for 10 min at 4° C. Protein concentration was determined by BCA assay. […]

phosphorylated TBK1 = experiment: as above; assay type: cell-based, human; settings: erlotinib 0.5 μM
Description: as §3, §4, §5

[4] = system: orthotopic FG pancreatic tumors; experiment: orthotopic pancreas cancer xenograft model; assay type: in vivo, mice
From the text: as §2
(§6) In all cases, β3 expressing tumor cells were intrinsically more resistant to EGFR blockade than β3-negative tumor cell lines (FIG. 26e).
(a) Flow cytometric quantification of cell surface markers after 3 weeks treatment with erlotinib (pancreatic and colon cancer cells) or lapatinib (breast cancer cells). (b) Flow cytometric analysis of αvβ3 expression in FG and Miapaca-2 cells following erlotinib. Error bars represent s.d. (n=3 independent experiments). (c) Top, immunofluorescence staining of integrin αvβ3 in tissue specimens obtained from orthotopic pancreatic tumors treated with vehicle (n=3) or erlotinib (n=4). Scale bar, 50 μm. Bottom, Integrin αvβ3 expression was quantified as ratio of integrin αvβ3 pixel area over nuclei pixel area using Metamorph (*P=0.049 using Mann-Whitney U test). (d) Right, intensity (scale 0 to 3) of β3 expression in mouse orthotopic lung tumors treated with vehicle (n=8) or erlotinib (n=7). Left, immunohistochemical staining of β3. Scale bar, 100 μm. […] Results are expressed as % tumor weight compared to vehicle control. *P<0.05. […]

PANC-1 cells = experiment: tumor sphere formation assay; assay type: cell-based, human; settings: αvβ3 knockdown vs control
From the text: as §6
(a) Flow cytometric quantification of cell surface markers after 3 weeks treatment with erlotinib (pancreatic and colon cancer cells) or lapatinib (breast cancer cells). (b) Flow cytometric analysis of αvβ3 expression in FG and Miapaca-2 cells following erlotinib. Error bars represent s.d. (n=3 independent experiments). (c) Top, immunofluorescence staining of integrin αvβ3 in tissue specimens obtained from orthotopic pancreatic tumors treated with vehicle (n=3) or erlotinib (n=4). Scale bar, 50 μm. Bottom, Integrin αvβ3 expression was quantified as ratio of integrin αvβ3 pixel area over nuclei pixel area using Metamorph (*P=0.049 using Mann-Whitney U test). (d) Right, intensity (scale 0 to 3) of β3 expression in mouse orthotopic lung tumors treated with vehicle (n=8) or erlotinib (n=7). Left, immunohistochemical staining of β3. Scale bar, 100 μm. […] (f) Tumor sphere formation assay to establish a dose-response for erlotinib. Error bars represent s.d. (n=3 independent experiments). […] Results are expressed as % tumor weight compared to vehicle control. *P<0.05.
Tumor spheres formation assays were performed essentially as described previously^17. […] Colonies were stained with crystal violet and scored with an Olympus SZH10 microscope.

`C[C@]1(O)C[C@@H](c2nc(-c3ccc4ccc(-c5ccccc5)nc4c3)c3c(N)nccn32)C1` [OSI-906] was tested, and the “effect of αvβ3 expression on drug resistance” value (“effect of αvβ3 expression” below) (FG and FG-β3 cells) was “induced resistance”.

In the case of `CC(C)[C@H]1C(=O)N[C@@H](CCCN=C(N)N)C(=O)NCC(=O)N[C@@H](CC(=O)O)C(=O)N[C@H](Cc2ccccc2)C(=O)N1C` [cilengitide], the G2/M progression (G2/M progression) is reported as “blocks G2/M progression”, the “activation/phosphorylation of C-RAF Ser338” value (C-RAF Ser338) is reported as “prevents the activation/phosphorylation of C-RAF Ser338” and the “inhibition of ligand binding to integrin avb3” value (avb3) is reported as “inhibit ligand binding”. For the same compound, the “inhibition of ligand binding to integrin avb3” value (avb3; listed as EMD 121974) was “potent inhibitor”, the “angiogenesis and tumor growth in vivo” value [1] was “inhibited angiogenesis and tumor growth” and the “C-RAF S338 phosphorylation” value [2] was “blocks C-RAF S338 phosphorylation”. The “C-RAF S338 phosphorylation” value ([2]; listed as Cilengitide) was “prevents the activation/phosphorylation of C-RAF Ser338”, the “orthotopic GBM tumor vascularization and growth” value (orthotopic GBM tumors; CD31, Ki-67 and TUNEL staining) was “inhibits orthotopic GBM tumor vascularization and growth” and the tumor burden (orthotopic GBM tumors; GBM tumors implanted in the brain) was “decreases tumor burden”. For the same compound, the “orthotopic GBM tumor burden” value (orthotopic GBM tumors; sub-optimal doses of cilengitide and radiation combined) was “synergize to reduce orthotopic GBM tumor burden”, the “efficacy in cancer patients” value (patients with cancer) was “potentially efficacious in some patients” and the “toxicity in cancer patients” value (patients with cancer) was “non-toxic”. The “inhibition of ligand binding to integrin avb5” value (avb5) was “inhibit ligand binding” and the “inhibition of ligand binding to integrin avb5” value (avb5; listed as EMD 121974) was “potent inhibitor”.

`N.N.[Cl][Pt][Cl]` [cisplatin] was tested, and the “effect of αvβ3 expression” value (FG and FG-β3 cells) was “failed to protect cells”.

With `C#Cc1cccc(Nc2ncnc3cc(OCCOC)c(OCCOC)cc23)c1` [erlotinib] the “integrin αvβ3 expression compared with vehicle-treated tumors” value [3] was “qualitative increase”, the “levels of phosphorylated NF-κB” value (phosphorylated NF-κB; αvβ3 negative cells) was “reduced levels” and the “levels of phosphorylated NF-κB” value (phosphorylated NF-κB; β3-positive cells) was “remained activated”. The “levels of phosphorylated TBK1” value (phosphorylated TBK1; αvβ3 negative cells) was “reduced levels”, the “levels of phosphorylated TBK1” value (phosphorylated TBK1; β3-positive cells) was “remained activated” and the “increase in αvβ3 expression” value ([4]; four weeks of erlotinib treatment) was 10 fold. The “effect of ectopic expression of αvβ3 on drug resistance” value ([4]; orthotopic pancreatic tumors after systemic treatment) was “dramatically increased erlotinib resistance”, the “increase in tumor cell sensitivity on knockdown of αvβ3” value (PANC-1 cells) was 10 fold and the “effect of αvβ3 expression” value (FG and FG-β3 cells) was “dramatically increased erlotinib resistance”. The “erlotinib sensitivity under genetic or pharmacological inhibition of NF-κB” value (FG and FG-β3 cells; β3-positive cells, FIG. 29d combination with lenalidomide (1 μM)) was “completely restored erlotinib sensitivity”.

`Nc1ccn([C@@H]2O[C@H](CO)[C@@H](O)C2(F)F)c(=O)n1` [gemcitabine] was tested, and the “effect of αvβ3 expression” value (FG and FG-β3 cells) was “failed to protect cells”.
